# Experimental data: patent publication US20230265151A1, “GIP/GLP1 CO-AGONIST COMPOUNDS” (priority 2020, published 2023)
# Where two headings read alike, the source gives them in different places. *1 amine or outer side, *2 acyl side, *3 side chain or, on linkers, in order; H or OH if unused. Where a SMILES comes first, the peptide text is derived from it. Side-chain parts run from the residue outwards. [ ]: non-standard residue; d: D form. The star is where a group is joined. αMePhe(2-F) = C[C@](N)(Cc1ccccc1F)C(=O)O; γGlu = O=C(O)[C@H](CCC(=O)[*:2])N[*:1]; C14 diacid = O=C(O)CCCCCCCCCCCCC(=O)*; αMeY = C[C@](N)(Cc1ccc(O)cc1)C(=O)O; 4Pal = N[C@@H](Cc1ccncc1)C(=O)O; αMeL = CC(C)C[C@](C)(N)C(=O)O; Orn = NCCC[C@H](N)C(=O)O; AEEA = NCCOCCOCC(=O)O; Aib = CC(C)(N)C(=O)O
# What was measured:
# Assay type in all cases: cell-based
# hGIPR = molecular target: T1, hGIPR (Homo sapiens, UniProt P48546); experiment: Functional cAMP formation (HTRF) in HEK-293 clonal cells expressing hGIPR, 0.1% bovine casein, without or with 1.0% human serum albumin; settings: for EC50: geometric mean
# T1 construct: expressed in transfected cells
# T1 sequence (P48546 22-466): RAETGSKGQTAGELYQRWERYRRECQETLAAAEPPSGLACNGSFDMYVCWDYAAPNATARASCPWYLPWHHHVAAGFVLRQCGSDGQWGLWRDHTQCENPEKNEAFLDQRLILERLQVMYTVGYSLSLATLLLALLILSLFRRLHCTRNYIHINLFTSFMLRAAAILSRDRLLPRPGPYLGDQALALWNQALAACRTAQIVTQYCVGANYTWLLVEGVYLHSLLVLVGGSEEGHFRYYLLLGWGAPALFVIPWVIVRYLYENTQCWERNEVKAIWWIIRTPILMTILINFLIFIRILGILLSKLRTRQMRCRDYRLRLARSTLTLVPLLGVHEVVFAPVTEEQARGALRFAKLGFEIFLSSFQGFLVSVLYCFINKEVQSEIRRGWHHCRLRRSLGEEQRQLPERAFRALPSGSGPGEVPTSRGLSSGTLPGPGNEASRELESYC
# Procedure, shortened: (§1)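 Readings of the HTRF 665/620 nm ratio, which falls as cAMP rises, were converted to nM cAMP using a standard curve after 30 min peptide exposure at 37° C.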
# hGCGR = molecular target: T2, hGCGR (Homo sapiens, UniProt P47871); experiment: Functional cAMP formation (HTRF) in HEK-293 clonal cells expressing hGCGR, 0.1% bovine casein, without or with 1.0% human serum albumin
# T2 construct: expressed in transfected cells
# T2 sequence (P47871 26-477): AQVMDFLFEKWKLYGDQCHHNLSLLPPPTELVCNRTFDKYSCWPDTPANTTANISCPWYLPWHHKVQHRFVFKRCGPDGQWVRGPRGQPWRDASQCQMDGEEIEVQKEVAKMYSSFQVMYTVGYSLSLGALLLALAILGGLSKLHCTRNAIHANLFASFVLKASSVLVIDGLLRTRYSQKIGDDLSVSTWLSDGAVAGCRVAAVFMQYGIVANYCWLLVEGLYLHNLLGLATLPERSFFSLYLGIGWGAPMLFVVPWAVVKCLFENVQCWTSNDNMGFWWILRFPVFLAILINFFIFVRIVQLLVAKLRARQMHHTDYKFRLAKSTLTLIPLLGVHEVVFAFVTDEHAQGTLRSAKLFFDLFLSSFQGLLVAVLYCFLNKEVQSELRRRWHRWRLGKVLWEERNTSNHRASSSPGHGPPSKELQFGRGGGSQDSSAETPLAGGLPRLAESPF
# Procedure, shortened: as §1
# hGLP-1R = hGLP-1R (Homo sapiens, UniProt P43220); experiment: Functional cAMP formation (HTRF) in HEK-293 clonal cells expressing hGLP-1R, 0.1% bovine casein, without or with 1.0% human serum albumin; set-up: expressed in transfected cells
# hGLP-1R, sequence (P43220 24-463): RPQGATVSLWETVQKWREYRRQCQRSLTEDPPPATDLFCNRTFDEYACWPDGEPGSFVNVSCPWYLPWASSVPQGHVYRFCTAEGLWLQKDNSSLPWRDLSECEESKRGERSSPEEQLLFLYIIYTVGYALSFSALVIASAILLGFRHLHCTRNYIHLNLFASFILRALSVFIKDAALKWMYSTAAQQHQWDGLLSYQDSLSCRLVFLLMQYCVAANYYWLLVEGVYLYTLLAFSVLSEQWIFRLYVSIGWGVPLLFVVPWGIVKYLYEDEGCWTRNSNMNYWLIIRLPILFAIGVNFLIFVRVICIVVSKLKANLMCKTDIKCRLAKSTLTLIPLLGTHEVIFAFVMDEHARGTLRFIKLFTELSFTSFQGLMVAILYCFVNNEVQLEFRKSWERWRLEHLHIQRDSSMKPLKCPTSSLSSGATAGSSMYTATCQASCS
# Procedure, shortened: as §1
"EC50 (hGIPR; 0.1% bovine casein and 1.0% human serum albumin, 37° C., read-out: hGIPR EC50, nM (SEM, n)) [nM]","Emax (hGIPR; HEK293, 0.1% bovine casein and 1.0% human serum albumin, 37° C., percent of maximal response to GIP(1-42)NH2, read-out: hGIPR Emax, % ± SEM) [%]","Emax (hGIPR; HEK293, percent of maximal response to GIP(1-42)NH2, 37° C., 0.1% bovine casein, arithmetic mean, read-out: hGIPR Emax, % ± SEM) [%]","EC50 (hGIPR; cAMP, incubated at 37° C., 0.1% bovine casein (no human serum albumin), read-out: hGIPR EC50, nM (SEM, n)) [nM]","EC50 (hGCGR; 0.1% bovine casein and 1.0% human serum albumin, 37° C., geometric mean, read-out: hGCGR EC50, nM (SEM, n)) [nM]","EC50 (hGCGR; cAMP, incubated at 37° C., 0.1% bovine casein (no human serum albumin), geometric mean, read-out: hGCGR EC50, nM (SEM, n)) [nM]","EC50 (hGLP-1R; 0.1% bovine casein and 1.0% human serum albumin, 37° C., geometric mean, read-out: hGLP-1R EC50, nM (SEM, n)) [nM]","Emax (hGLP-1R; HEK293, 0.1% bovine casein and 1.0% human serum albumin, 37° C., percent of maximal response to GLP-1(7-36)NH2, read-out: hGLP-1R Emax, % ± SEM) [%]","Emax (hGLP-1R; HEK293, percent of maximal response to GLP-1(7-36)NH2, 37° C., 0.1% bovine casein, arithmetic mean, read-out: hGLP-1R Emax, % ± SEM) [%]","EC50 (hGLP-1R; cAMP, incubated at 37° C., 0.1% bovine casein (no human serum albumin), geometric mean, read-out: hGLP-1R EC50, nM (SEM, n)) [nM]",SMILES,"Emax (hGIPR; HEK293, read-out: hGIPR Emax, % ± SEM, cAMP, 37° C., 0.1% bovine casein and 1.0% human serum albumin, percent of maximal response to GIP(1-42)NH2) [%]","Emax (hGIPR; HEK293, read-out: hGIPR Emax, % ± SEM, cAMP, 37° C., 0.1% bovine casein, percent of maximal response to GIP(1-42)NH2, arithmetic mean) [%]","EC50 (hGIPR; hGIPR EC50, nM (SEM, n), cAMP, 37° C., 0.1% bovine casein (no human serum albumin)) [nM]","EC50 (hGCGR; hGCGR EC50, nM (SEM, n), cAMP, 37° C., 0.1% bovine casein (no human serum albumin), geometric mean) [nM]","EC50 (hGCGR; hGCGR EC50, nM (SEM, n), cAMP, 37° C., 0.1% bovine casein and 1.0% human serum albumin, geometric mean (SEM, n)) [nM]","Emax (hGLP-1R; HEK293, read-out: hGLP-1R Emax, % ± SEM, cAMP, 37° C., 0.1% bovine casein and 1.0% human serum albumin, percent of maximal response to GLP-1(7-36)NH2) [%]","Emax (hGLP-1R; HEK293, read-out: hGLP-1R Emax, % ± SEM, cAMP, 37° C., 0.1% bovine casein, percent of maximal response to GLP-1(7-36)NH2, arithmetic mean) [%]","EC50 (hGLP-1R; hGLP-1R EC50, nM (SEM, n), cAMP, 37° C., 0.1% bovine casein (no human serum albumin), geometric mean) [nM]","EC50 (hGLP-1R; hGLP-1R EC50, nM (SEM, n), cAMP, 37° C., 0.1% bovine casein and 1.0% human serum albumin, geometric mean (SEM, n)) [nM]"
1.15,94.1 ± 3.21,97.8 ± 2.74,0.0277,> 9950,> 9950,40.8,98.2 ± 5.4,91.8 ± 4.63,1.1,CC[C@H](C)[C@H](NC(=O)[C@H](CC(C)C)NC(=O)[C@](C)(Cc1ccc(O)cc1)NC(=O)[C@@H](CCC(=O)O)NC(=O)[C@@H](NC(=O)[C@H](Cc1ccccc1)NC(=O)[C@H](CCC(=O)O)NC(=O)C(C)(C)NC(=O)[C@H](CCC(N)=O)NC(=O)[C@H](C)NC(=O)[C@H](CCCCNC(=O)COCCOCCNC(=O)COCCOCCNC(=O)CC[C@H](NC(=O)CCCCCCCCCCCCC(=O)O)C(=O)O)NC(=O)[C@H](CCCN)NC(=O)[C@H](CC(=O)O)NC(=O)[C@H](CC(C)C)NC(=O)[C@](C)(CC(C)C)NC(=O)[C@@H](NC(=O)[C@H](CO)NC(=O)[C@H](Cc1ccncc1)NC(=O)[C@H](CC(=O)O)NC(=O)[C@H](CO)NC(=O)[C@@H](NC(=O)[C@](C)(Cc1ccccc1F)NC(=O)[C@@H](NC(=O)CNC(=O)[C@H](CCC(=O)O)NC(=O)C(C)(C)NC(=O)[C@@H](N)Cc1ccc(O)cc1)[C@@H](C)O)[C@@H](C)O)[C@@H](C)CC)[C@@H](C)CC)C(=O)N[C@@H](CCC(=O)O)C(=O)NCC(=O)NCC(=O)N[C@@H](CCCCNC(=O)COCCOCCNC(=O)COCCOCCNC(=O)CC[C@H](NC(=O)CCCCCCCCCCCCC(=O)O)C(=O)O)C(=O)N[C@@H](CO)C(=O)N[C@@H](CO)C(=O)NCC(=O)N[C@@H](CCCN)C(=O)N1CCC[C@H]1C(=O)N1CCC[C@H]1C(=O)N1CCC[C@H]1C(=O)N[C@@H](CO)C(N)=O [Example 153] (H-Y[Aib]EGT[αMePhe(2-F)]TSD[4Pal]SI[αMeL]LD[Orn]K([AEEA-AEEA-γGlu-C14 diacid])AQ[Aib]EFI[dE][αMeY]LIEGGK([AEEA-AEEA-γGlu-C14 diacid])SSG[Orn]PPPS-NH2),,,,,,,,,
,,,,,,,,,,CC[C@H](C)[C@H](NC(=O)[C@H](CC(C)C)NC(=O)[C@](C)(Cc1ccc(O)cc1)NC(=O)[C@@H](CCC(=O)O)NC(=O)[C@@H](NC(=O)[C@H](Cc1ccccc1)NC(=O)[C@H](CCC(=O)O)NC(=O)C(C)(C)NC(=O)[C@H](CCC(N)=O)NC(=O)[C@H](C)NC(=O)[C@H](CCCCNC(=O)COCCOCCNC(=O)COCCOCCNC(=O)CCCCCCCCCOc1ccc(C(=O)O)cc1)NC(=O)[C@H](CCCN)NC(=O)[C@H](CC(=O)O)NC(=O)[C@H](CC(C)C)NC(=O)[C@](C)(CC(C)C)NC(=O)[C@@H](NC(=O)C(C)(C)NC(=O)[C@H](Cc1ccncc1)NC(=O)[C@H](CC(=O)O)NC(=O)[C@H](CO)NC(=O)[C@@H](NC(=O)[C@](C)(Cc1ccccc1F)NC(=O)[C@@H](NC(=O)CNC(=O)[C@H](CCC(=O)O)NC(=O)C(C)(C)NC(=O)[C@@H](N)Cc1ccc(O)cc1)[C@@H](C)O)[C@@H](C)O)[C@@H](C)CC)[C@@H](C)CC)C(=O)N[C@@H](CCCCNC(=O)COCCOCCNC(=O)COCCOCCNC(=O)CCCCCCCCCOc1ccc(C(=O)O)cc1)C(=O)NCC(=O)NCC(=O)N1CCC[C@H]1C(=O)N[C@@H](CO)C(=O)N[C@@H](CO)C(=O)NCC(=O)N[C@@H](C)C(=O)N1CCC[C@H]1C(=O)N1CCC[C@H]1C(=O)N1CCC[C@H]1C(=O)N[C@@H](CO)C(N)=O [Example 395],57.8,93.1,0.0127,> 9950,> 9950,96.1,90.8,0.377,6.26
